Source: patent publication US20220402908A1, “CXCR6 INHIBITORS AND METHODS OF USE” (Sanford Burnham Prebys Medical Discovery Institute, priority 2019, published 2022)

Assays:
CXCR6 [1] = target: T1, CXCR6 (Homo sapiens, UniProt O00574); assay: β-arrestin recruitment inhibition in CXCR6-expressing CHO-K1 cells (PathHunter, DiscoveRx); type: cell-based
Protocol: (§1) Compounds of Formula (I), (Ia), (Ib), (Ic), (Id), and (II) are tested for their ability to inhibit β-arrestin recruitment in CXCR6-expressing CHO-K1 cells using the β-galactosidase PathHunter Enzyme Complementation Platform from DiscoveRx. A detailed protocol for this assay is available on PubChem (AIDs 624129). Accordingly, 800 CHO-K1 cells expressing CXCR6 (DiscoveRx, Cat #93-0205C2) are seeded into the wells of a white opaque 1536-well plate, centrifuged, and incubated overnight at 37° C., 5% CO2. The next day, compounds of Formula (I), (Ia), (Ib), (Ic), (Id), and (II) and controls (CXCL16 (10 nM) or DMSO) are dispensed into wells and incubated for 1.5 h. The assay is terminated upon addition of lysis buffer, detection substrate, and enzyme. Luminescence is read on the Envision plate reader 1 h post-termination. All compounds are tested in a 10 pt dose-response curve in duplicate. Compounds will also be tested in a CXCR6-dependent cAMP assay using the Lance Ultra assay from PerkinElmer. Accordingly, 2 uL CXCR6-expressing cells are suspended in assay media (OptiMEM; 2% FBS; 1×P/S) and plated at 500 cells/well in 1536-well, white, TC plates and grown overnight at 37° C.; 5% CO2. 40 nL test compounds of Formula (I), (Ia), (Ib), (Ic), (Id), and (II) are added to cells using ECHO dispenser. 2 uL of 2.5 mM forskolin in stimulation buffer (HBSS; 5 mM HEPES; 0.1% BSA; 0.1 mM RO-20-1724) with or without 20 nM CXCL16 is transferred to wells using BioRAPTR. Wells treated with forskolin and CXCL16 serve as negative controls and wells treated with forskolin only serve as positive controls. Cells are incubated at room temperature for 30 min followed by addition of 2 uL each EU-cAMP tracer and ULight anti-cAMP Ab in detection buffer according to manufacturer's instruction. After 30 min at room temperature, TR-FRET is read using EnVision plate reader.

CXCR6 [2] = target: T1, CXCR6; assay: CXCR6-dependent cAMP assay (Lance Ultra, PerkinElmer); type: cell-based; conditions: CXCR6-expressing cells, forskolin + CXCL16; Table B-1
Protocol: as §1

[3] = system: SK-Hep-1 cancer xenograft; assay: SK-Hep-1 cancer xenograft tumor growth; type: in vivo; conditions: compared to control; FIG. 1 legend
[4] = CXCR6-expressing CHO-K1 cells, Table B-1, read-out: IC50 (β-arrestin)

T1 sequence (O00574 whole entry): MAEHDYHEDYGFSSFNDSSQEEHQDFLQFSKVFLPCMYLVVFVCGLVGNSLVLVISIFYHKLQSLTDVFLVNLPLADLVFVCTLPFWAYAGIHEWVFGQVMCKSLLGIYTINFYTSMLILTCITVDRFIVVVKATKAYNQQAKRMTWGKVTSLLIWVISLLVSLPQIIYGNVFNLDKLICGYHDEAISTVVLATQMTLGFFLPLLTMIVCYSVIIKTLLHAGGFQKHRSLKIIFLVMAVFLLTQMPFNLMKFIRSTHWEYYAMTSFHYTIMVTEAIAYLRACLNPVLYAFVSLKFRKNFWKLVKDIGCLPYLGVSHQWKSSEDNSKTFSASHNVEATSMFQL

| SMILES | IC50 (CXCR6 [1]; [4]) | IC50 (CXCR6 [1]) | IC50 (CXCR6 [2]) | further results |
| --- | --- | --- | --- | --- |
| CCC(C)Oc1ccc(C(=O)N[C@@H]2C[C@H]3CCC[C@@H](C2)N3Cc2nc3c(C(F)(F)F)cccc3s2)cc1OC (stereo partly drawn) [4-(sec-butoxy)-3-methoxy-N-((1R,3s,5S)-9-((4-(trifluoromethyl)benzo[d]thiazol-2-yl)methyl)-9-azabicyclo[3.3.1]nonan-3-yl)benzamide] | < 0.1 µM | – | – | – |
| COc1cc(C(=O)N[C@@H]2C[C@H]3CCC[C@@H](C2)N3Cc2nc3c(C(F)(F)F)cccc3s2)ccc1OC(C)C [4-isopropoxy-3-methoxy-N-((1R,3s,5S)-9-((4-(trifluoromethyl)benzo[d]thiazol-2-yl)methyl)-9-azabicyclo[3.3.1]nonan-3-yl)benzamide] | – | 0.1 to 2 µM | – | – |
| COc1cc(C(=O)N2C[C@H]3CCC[C@@H](C2)N3Cc2nc3c(C(F)(F)F)cccc3s2)cc(OC)c1OC [((1R,5S)-9-((4-(trifluoromethyl)benzo[d]thiazol-2-yl)methyl)-3,9-diazabicyclo[3.3.1]nonan-3-yl)(3,4,5-trimethoxyphenyl)methanone] | – | 0.1 to 2 µM | – | – |
| COc1cc(C(=O)N[C@@H]2C[C@H]3CCC[C@@H](C2)N3Cc2nc3c(C(F)(F)F)cccc3s2)cc(OC)c1OC [Compound 1, 3,4,5-trimethoxy-N-((1R,3s,5S)-9-((4-(trifluoromethyl)benzo[d]thiazol-2-yl)methyl)-9-azabicyclo[3.3.1]nonan-3-yl)benzamide] | – | < 0.1 µM | – | – |
| COc1cc(C(=O)N[C@@H]2C[C@H]3CCC[C@@H](C2)N3CC(=O)Nc2ccccc2Cl)cc(OC)c1OC [N-((1R,3s,5S)-9-(2-((2-chlorophenyl)amino)-2-oxoethyl)-9-azabicyclo[3.3.1]nonan-3-yl)-3,4,5-trimethoxybenzamide] | 0.1 to 2 µM | – | 2 to 5 µM | – |
| COc1cc(C(=O)N[C@@H]2C[C@H]3CCC[C@@H](C2)N3Cc2nc3c(Cl)c(Cl)ccc3s2)cc(OC)c1OC [N-((1R,3s,5S)-9-((4,5-dichlorobenzo[d]thiazol-2-yl)methyl)-9-azabicyclo[3.3.1]nonan-3-yl)-3,4,5-trimethoxybenzamide] | – | < 0.1 µM | – | – |
| COc1cc(C(=O)N[C@@H]2C[C@H]3CCC[C@@H](C2)N3Cc2nc3c(Cl)cccc3s2)cc(OC)c1OC [N-((1R,3s,5S)-9-((4-chlorobenzo[d]thiazol-2-yl)methyl)-9-azabicyclo[3.3.1]nonan-3-yl)-3,4,5-trimethoxybenzamide] | 0.1 to 2 µM | – | 0.1 to 2 µM | – |
| COc1cc(C(=O)N[C@@H]2C[C@H]3CCC[C@@H](C2)N3Cc2cc3ccccc3s2)cc(OC)c1OC [N-((1R,3s,5S)-9-(benzo[b]thiophen-2-ylmethyl)-9-azabicyclo[3.3.1]nonan-3-yl)-3,4,5-trimethoxybenzamide] | 0.1 to 2 µM | – | 5 to 20 µM | – |
| O=P1(N(CCCl)CCCl)NCCCO1 (stereo not drawn) [cyclophosphamide] | – | – | – | tumor growth, SK-Hep-1 cancer xenograft [3]: tumor growth reduction |
